Assay results taken from ChEMBL document CHEMBL1201862, “PubChem BioAssay data set” (2004).
Several values for one entry are separate records, joined by “and”; a condition that tells them apart may be missing. Equal entries are not always repeated. Activity calls are given as the source filed them. Rule as the data show it, for most assays here: actives have a measured EC50 and inactives only a lower limit.

Key:
[1] = target: T1, Heat shock factor protein 1 (Mus musculus, UniProt P38532); assay: decrease of HSF1-responsive luciferase luminescence – cell-based, NIH3T3, dose retest, confirmation (AID 2382); type: functional;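 also: NIH3T3 fibroblasts with HSF1-driven luciferase reporter stressed by proteasome inhibitor MG132; luminescence from HSF1-driven luciferase expression after 8 hours of MG132 stress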
T1 sequence (P38532 whole entry): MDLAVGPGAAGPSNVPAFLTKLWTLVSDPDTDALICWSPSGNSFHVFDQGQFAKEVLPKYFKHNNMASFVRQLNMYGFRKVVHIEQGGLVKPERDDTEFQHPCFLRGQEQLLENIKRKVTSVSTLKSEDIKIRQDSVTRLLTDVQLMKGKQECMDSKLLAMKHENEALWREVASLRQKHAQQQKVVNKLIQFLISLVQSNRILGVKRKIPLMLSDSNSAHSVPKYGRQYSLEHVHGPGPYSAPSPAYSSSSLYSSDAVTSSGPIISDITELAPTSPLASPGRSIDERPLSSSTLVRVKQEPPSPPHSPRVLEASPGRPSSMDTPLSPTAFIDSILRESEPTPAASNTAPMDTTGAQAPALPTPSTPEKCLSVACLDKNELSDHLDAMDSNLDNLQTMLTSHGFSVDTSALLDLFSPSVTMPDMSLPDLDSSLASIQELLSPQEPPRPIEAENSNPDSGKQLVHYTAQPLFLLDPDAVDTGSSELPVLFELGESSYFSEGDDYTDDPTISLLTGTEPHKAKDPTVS

Cytochrome P450 3A4 = Cytochrome P450 3A4 (Homo sapiens, UniProt P08684);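 also: CYP3A4 tested as one member of a cytochrome P450 panel screen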
[2] = test system: Streptococcus sp. 'group A'; assay: Streptococcus pyogenes SK(-)GAS viability under kanamycin – luminescence, BacTiterGlo, confirmation, counter-screen for streptokinase expression inhibitor project, dose response (AID 1900); type: functional, organism-based
Streptokinase A = target: T2, Streptokinase A (Streptococcus pyogenes serotype M1, UniProt P10520); assay: viability-normalized secreted streptokinase activity reduction – plasminogen activation absorbance, OD405, dose response (AID 1914); type: functional, Streptococcus pyogenes M1 GAS;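 also: secreted streptokinase activity via plasminogen activation per viability signal from cell pellet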
T2 sequence (P10520 whole entry): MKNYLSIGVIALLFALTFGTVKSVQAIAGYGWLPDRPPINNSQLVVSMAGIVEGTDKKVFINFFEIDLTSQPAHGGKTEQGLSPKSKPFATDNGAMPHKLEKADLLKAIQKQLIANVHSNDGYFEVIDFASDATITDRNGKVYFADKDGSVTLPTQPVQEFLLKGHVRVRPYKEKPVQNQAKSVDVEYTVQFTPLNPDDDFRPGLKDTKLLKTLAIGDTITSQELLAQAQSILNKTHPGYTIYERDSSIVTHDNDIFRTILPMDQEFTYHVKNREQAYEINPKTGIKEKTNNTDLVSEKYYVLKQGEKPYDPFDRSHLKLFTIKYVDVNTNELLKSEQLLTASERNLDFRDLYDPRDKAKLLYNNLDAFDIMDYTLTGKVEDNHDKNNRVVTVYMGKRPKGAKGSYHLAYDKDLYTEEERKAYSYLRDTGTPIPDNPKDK

Streptococcus = assay: GAS UMAA2166 growth inhibition – luminescence, BacTiterGlo, counter-screen for streptokinase expression inhibitor project, dose response (AID 1915); type: functional, organism-based;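 also: potency for reduction of bacterial viability or growth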
Cytochrome P450 2C9 = Cytochrome P450 2C9 (Homo sapiens, UniProt P11712)
[3] = Trypanosoma cruzi growth suppression in host cells – NIH3T3 host cells, beta-gal luminescence, confirmation (AID 2044); type: functional, cell-based;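 also: intracellular parasites grown in NIH/3T3 mouse fibroblasts as host cells; luminescent beta-galactosidase reporter signal from transgenic T. cruzi replicating inside host cells; inhibitors lower the luminescence signal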
[4] = NIH3T3 cell viability loss – ATP luminescence, mouse fibroblasts, counter-screen, dose response (AID 2010); type: functional, cell-based;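 also: cells exposed to compound for about 90 hours before reading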
[5] = target: T3, Corticotropin-releasing factor receptor 2/Corticotropin-releasing factor-binding protein (Homo sapiens, UniProt P24387+Q13324); assay: activators of CRF receptor 2 with binding protein – uHTS hits, confirmation (AID 602473); type: functional; conditions: read-out: EC50_Mean
T3 sequence (Q13324 whole entry): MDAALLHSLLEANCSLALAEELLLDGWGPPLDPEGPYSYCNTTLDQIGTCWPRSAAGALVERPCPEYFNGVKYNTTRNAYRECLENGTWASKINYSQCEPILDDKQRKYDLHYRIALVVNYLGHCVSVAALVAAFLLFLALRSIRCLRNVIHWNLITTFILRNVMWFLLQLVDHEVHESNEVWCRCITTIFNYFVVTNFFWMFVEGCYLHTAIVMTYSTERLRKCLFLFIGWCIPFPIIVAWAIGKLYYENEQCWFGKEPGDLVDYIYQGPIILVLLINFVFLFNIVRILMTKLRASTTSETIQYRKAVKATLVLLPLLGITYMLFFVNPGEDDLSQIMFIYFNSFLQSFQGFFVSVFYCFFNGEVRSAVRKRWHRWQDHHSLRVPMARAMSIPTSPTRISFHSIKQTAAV
T3 sequence (P24387 whole entry): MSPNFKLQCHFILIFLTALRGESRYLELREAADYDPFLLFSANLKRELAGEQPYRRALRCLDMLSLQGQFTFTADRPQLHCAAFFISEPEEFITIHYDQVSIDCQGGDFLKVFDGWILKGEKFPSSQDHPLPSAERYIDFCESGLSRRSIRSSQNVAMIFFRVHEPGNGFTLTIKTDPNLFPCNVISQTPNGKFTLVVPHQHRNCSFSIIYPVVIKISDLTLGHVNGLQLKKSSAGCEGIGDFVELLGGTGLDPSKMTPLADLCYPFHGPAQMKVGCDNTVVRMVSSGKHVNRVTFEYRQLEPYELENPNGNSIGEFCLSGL

Chain of Cytochrome P450 2C9 (P11712 whole entry): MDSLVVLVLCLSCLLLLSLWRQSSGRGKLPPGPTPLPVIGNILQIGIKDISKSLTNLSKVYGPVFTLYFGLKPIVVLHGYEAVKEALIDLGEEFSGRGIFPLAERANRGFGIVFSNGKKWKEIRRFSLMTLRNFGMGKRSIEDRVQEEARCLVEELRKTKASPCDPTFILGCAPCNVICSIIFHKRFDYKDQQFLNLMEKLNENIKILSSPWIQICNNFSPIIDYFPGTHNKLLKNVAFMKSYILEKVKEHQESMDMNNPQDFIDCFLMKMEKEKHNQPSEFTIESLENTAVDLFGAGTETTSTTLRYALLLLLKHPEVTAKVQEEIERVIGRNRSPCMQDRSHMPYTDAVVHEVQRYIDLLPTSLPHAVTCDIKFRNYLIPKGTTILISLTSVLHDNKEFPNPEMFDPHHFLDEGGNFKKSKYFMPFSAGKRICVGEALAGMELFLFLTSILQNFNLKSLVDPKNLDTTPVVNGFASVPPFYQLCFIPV
Chain of Cytochrome P450 3A4 (P08684 whole entry): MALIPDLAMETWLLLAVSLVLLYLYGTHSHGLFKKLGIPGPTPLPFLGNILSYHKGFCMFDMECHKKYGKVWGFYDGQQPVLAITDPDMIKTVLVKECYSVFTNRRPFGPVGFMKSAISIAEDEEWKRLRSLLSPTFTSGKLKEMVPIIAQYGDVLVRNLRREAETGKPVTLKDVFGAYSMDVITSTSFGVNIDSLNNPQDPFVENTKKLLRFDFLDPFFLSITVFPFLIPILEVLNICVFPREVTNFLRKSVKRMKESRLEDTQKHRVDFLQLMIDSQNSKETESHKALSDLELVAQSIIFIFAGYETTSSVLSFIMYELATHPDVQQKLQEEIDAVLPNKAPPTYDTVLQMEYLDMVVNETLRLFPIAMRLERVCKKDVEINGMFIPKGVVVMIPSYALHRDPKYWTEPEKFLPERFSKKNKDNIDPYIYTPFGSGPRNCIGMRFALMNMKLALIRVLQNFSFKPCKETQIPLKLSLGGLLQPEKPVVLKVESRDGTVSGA

## CCOC(=O)N/N=C\c1ccc(C)s1
[1]
  EC50: > 195 µM (not active)

## CO[C@@H]1COC(=O)C/C=C\[C@@H](C)[C@@H]2C=C[C@H](O)[C@@H](COC(=O)CCC[C@H]1C)O2
Cytochrome P450 3A4
  AC50: 3.98 µM (inconclusive)

## CC(C)Sc1cc(N2CCCC2)nc(-c2ccc(F)cc2)n1
[2]
  EC50: 6.81 µM (active)
Streptokinase A
  EC50: 10.9 µM (active)
Streptococcus
  EC50: 23.8 µM (active)
Cytochrome P450 3A4
  AC50: 17.8 µM (inconclusive)
Cytochrome P450 2C9
  AC50: 7.94 µM (inconclusive)

## O=C(c1cc(-c2ccncc2)nc2ccccc12)N1CCN(c2ccccn2)CC1
[3]
  EC50: 1.1 µM (active)
[4]
  EC50: 10 µM (active)

## CCC(C)NCCOCCOc1ccc(F)cc1 (stereo not drawn)
[3]
  EC50: 0.806 µM (active)
[4]
  EC50: 10.7 µM (active)

## Cc1cc(NC(=O)CN2C(=O)c3ccccc3C2=O)no1
[2]
  EC50: > 150 µM (not active)
Streptokinase A
  EC50: > 150 µM (not active)
Streptococcus
  EC50: > 150 µM (not active)

## C=CCNCCOCCOc1ccc(C)cc1[N+](=O)[O-]
Cytochrome P450 3A4
  AC50: 12.6 µM (inconclusive)

## CC(=O)N=C(Nc1ccc2ccccc2c1)Nc1nc(C)cc(C)n1
[1]
  EC50: 146 µM (active)

## CCOC(=O)CCCNS(=O)(=O)c1c(C)ccc2nsnc12
[1]
  EC50: 53.4 µM (active)

## O=c1c(-c2cc(F)cc(F)c2)nc2cnc(Oc3ccccc3)nc2n1C[C@H]1CCCO1
Cytochrome P450 3A4
  AC50: 15.8 µM (inconclusive)

## Cn1nnc2cc(C(=O)NC(C)(C)C)ccc21
[1]
  EC50: 83.9 µM (active)

## O=C(NCCN1CCCCC1)c1ccc(I)cc1
Cytochrome P450 2C9
  AC50: 31.6 µM (inconclusive)

## N#Cc1c(-c2ccccc2)nc(SCc2ccc(Cl)cc2)[nH]c1=O
Streptokinase A
  EC50: 5.41 µM (active)

## C=CCn1c(=O)c(C(=O)NCCN(CC)CC)c(O)c2ccccc21
Cytochrome P450 2C9
  AC50: 8.91 µM (inconclusive)

## O=[N+]([O-])c1ccccc1Nc1cccnc1
[1]
  EC50: > 195 µM (not active)

## NC(=S)N/N=C/c1ccc2ccccc2c1
[3]
  EC50: 0.858 µM (active)
[4]
  EC50: > 60 µM (not active)

## Nc1c(C(=O)NCc2ccccc2)sc2nc3c(cc12)C(=O)CCC3
Cytochrome P450 3A4
  AC50: 25.1 µM (inconclusive)
Cytochrome P450 2C9
  AC50: 1.41 µM (inconclusive)

## NC(=S)N/N=C/c1cc([N+](=O)[O-])ccc1OCCOc1ccccc1
[1]
  EC50: 52.6 µM (active)

## COc1ccc(-c2ccc3c(n2)CCCN3C[C@H](O)CN2CCCc3nc(-c4ccc(Br)cc4)ccc32)cc1
Cytochrome P450 2C9
  AC50: 3.98 µM (inconclusive) and 3.16 µM (inconclusive)

## C=CCn1c(NCc2cc(Cl)ccc2O)nc2ccccc21
[2]
  EC50: > 150 µM (not active)
Streptokinase A
  EC50: > 150 µM (not active)
Streptococcus
  EC50: > 150 µM (not active)

## Cc1cc(C(F)(F)F)c(C#N)c(SCC(=O)Nc2nc3cc(Br)ccc3s2)n1
[2]
  EC50: 3.48 µM (active)
Streptokinase A
  EC50: 17.5 µM (active)
Streptococcus
  EC50: > 150 µM (not active)

## O=C(CNS(=O)(=O)c1ccccc1F)Nc1ccc(N2CCOCC2)cc1
[1]
  EC50: > 195 µM (not active)

## O=S(=O)(/N=C(/c1ccccc1Cl)N1CCOCC1)c1ccccc1
[1]
  EC50: > 195 µM (not active)

## CC(C)Oc1ccc2c(=O)c3cc(C(=O)O)ccc3oc2c1
Cytochrome P450 2C9
  AC50: 31.6 µM (inconclusive)

## NC(=O)NC(=O)CSc1nc2sc(-c3ccccc3)cc2c(=O)n1-c1ccccc1
[2]
  EC50: 2.21 µM (active)
Streptococcus
  EC50: 4.54 µM (active)

## CC1CC(C)CN(C(=O)c2ccc(CSc3nc4cc[nH]cc-4n3)cc2)C1 (stereo not drawn)
[1]
  EC50: > 195 µM (not active)

## Cc1cc(/C=C2\SC(=S)NC2=O)c(C)n1-c1cccc(O)c1
[2]
  EC50: 6.9 µM (active)
Streptococcus
  EC50: 49.7 µM (inconclusive)

## O=C(/C=C/c1ccc([N+](=O)[O-])cc1)Oc1ccc(/C=N/NC(=O)c2ccncc2)cc1
[3]
  EC50: 9.25 µM (active)
[4]
  EC50: > 60 µM (not active)

## Cc1ccc(S(=O)(=O)Nc2cc(C)c(O)c(S(=O)(=O)c3ccc(C)cc3)c2)cc1
[2]
  EC50: 39.6 µM (active)
Streptokinase A
  EC50: > 150 µM (not active)
Streptococcus
  EC50: > 150 µM (not active)

## N#Cc1c(O)nc(SCc2ccc(Cl)cc2)nc1-c1ccccc1
[2]
  EC50: 11.4 µM (active)
Streptococcus
  EC50: 14.1 µM (active)

## Oc1ccc2ccccc2c1CN1CCCCC1
[5]
  EC50: 3.84 µM (active)

## Nc1c2c(nc3ccccc13)CSCC2
[3]
  EC50: 3.33 µM (active)
[4]
  EC50: > 30 µM (not active)

## C[C@H](NC(=O)c1ccc(Cl)c(Cl)c1)c1ccc(-c2ccccc2)cc1
Cytochrome P450 2C9
  AC50: 3.16 µM (inconclusive)

## CCOC(=O)Cn1cc(C=C2C(=O)N(C)C(=O)N(C)C2=O)c2ccccc21
[5]
  EC50: 5.34 µM (active)

## CN1CCC(N(C)CC(=O)Nc2cccc(Oc3ccccc3)c2)CC1
[3]
  EC50: < 0.1 µM (active)
[4]
  EC50: > 60 µM (not active)

## Fc1ccc(-c2[nH]ncc2-c2nnnn2-c2ccccc2)c(F)c1
Cytochrome P450 3A4
  AC50: 10 µM (inconclusive)

## COc1ccc(-c2noc(-c3ccccc3-c3ccccc3)n2)cc1
[2]
  EC50: 32.9 µM (active)
Streptokinase A
  EC50: 17.8 µM (active)
Streptococcus
  EC50: > 150 µM (not active)

## O=C(c1cccs1)N1N=C(c2ccccc2)CC1c1ccccc1O (stereo not drawn)
[3]
  EC50: 2.84 µM (active)
[4]
  EC50: > 60 µM (not active)

## C=CCSc1nc2ccccc2c(=O)n1Cc1ccccc1
[2]
  EC50: 15.7 µM (active)
Streptokinase A
  EC50: > 150 µM (not active)
Streptococcus
  EC50: 99.4 µM (active)

## Cc1ccc2c(CC(=O)Nc3sccc3C(N)=O)coc2c1
[5]
  EC50: > 53 µM (inactive)

## CCc1ccc(NC(S)=NC2CC3CCCC(C2)N3Cc2cccs2)cc1 (stereo not drawn)
[3]
  EC50: 5.85 µM (active)
[4]
  EC50: > 60 µM (not active)

## O=C(COc1c(Cl)cccc1Cl)Nc1ccccc1N1CCCC1
[2]
  EC50: 16.4 µM (active)
Streptokinase A
  EC50: 16.1 µM (active)
Streptococcus
  EC50: > 150 µM (not active)

## CCN(CC)C(=O)c1cnc2ccc(S(=O)(=O)Nc3cc(C)cc(C)c3)cc2c1O
[5]
  EC50: 4.85 µM (active)

## Cc1ccc(C)c(NC(=O)NCc2ccc(Cl)cc2)c1
Cytochrome P450 3A4
  AC50: 2.51 µM (inconclusive)

## Cc1sc(N)c(C(=O)c2cccc(C(F)(F)F)c2)c1C
Cytochrome P450 3A4
  AC50: 12.6 µM (inconclusive)

## CN1CCN(c2ccncc2S(=O)(=O)N2CCN(C)CC2)CC1
Cytochrome P450 3A4
  AC50: 3.16 µM (inconclusive)

## CCOC(=O)CC1C(=O)NCCN1S(=O)(=O)c1ccc(Cl)c(Cl)c1 (stereo not drawn)
Cytochrome P450 3A4
  AC50: 12.6 µM (inconclusive)

## O=c1c2ccc([N+](=O)[O-])cc2ncn1CCOc1cccc(Br)c1
[3]
  EC50: 0.212 µM (active)
[4]
  EC50: > 60 µM (not active)

## CC(Nc1nc(-c2ccccc2O)nc2ccccc12)c1ccccc1 (stereo not drawn)
[2]
  EC50: 9.99 µM (active)
Streptokinase A
  EC50: 8.55 µM (active)
Streptococcus
  EC50: > 150 µM (not active)

## CC(C)(C)c1cccc(Oc2nn[nH]n2)c1
Cytochrome P450 3A4
  AC50: 22.4 µM (inconclusive)
Cytochrome P450 2C9
  AC50: 25.1 µM (inconclusive)

## C#CCCCO/N=C1/C[C@@H](O)[C@@H](O)[C@@H]2[C@@H]3C(=O)N(C[C@@H]4CCCO4)C(=O)[C@H]3CC[C@@H]12
Cytochrome P450 3A4
  AC50: 3.98 µM (inconclusive)

## O=C(Cc1ccccc1)NN1C(=O)/C(=C/c2c[nH]c3ccccc23)SC1=S
[2]
  EC50: 20.4 µM (active)
Streptokinase A
  EC50: > 150 µM (not active)
Streptococcus
  EC50: > 150 µM (not active)
